# Experimental data reported in patent publication US20060089378A1 (priority 2004, published 2006).
# Read-outs that look alike come from different tables or passages of the source.
# Experiments:
# CB1 receptor (human) = CB1 receptor (human) (Homo sapiens, UniProt P21554); experiment: cell-based; details: for CB1 Receptor Functional Activity (change in functional activity, CRE β-gal): one compound concentration, β-galactosidase activity relative to vehicle treated cells
# Cannabinoid CB2 Receptor = molecular target: T1, Cannabinoid CB2 Receptor (Homo sapiens, UniProt P34972); experiment: Binding assay for CB2 agonists or inverse agonists (radioligand competition, membranes of transfected SK-N-MC cells); details: for inhibition at 0.2 µM: read-out: Cannabinoid CB2 Receptor Binding percent inhibition
# T1 construct: expressed in transfected cells
# T1 sequence (P34972 whole entry): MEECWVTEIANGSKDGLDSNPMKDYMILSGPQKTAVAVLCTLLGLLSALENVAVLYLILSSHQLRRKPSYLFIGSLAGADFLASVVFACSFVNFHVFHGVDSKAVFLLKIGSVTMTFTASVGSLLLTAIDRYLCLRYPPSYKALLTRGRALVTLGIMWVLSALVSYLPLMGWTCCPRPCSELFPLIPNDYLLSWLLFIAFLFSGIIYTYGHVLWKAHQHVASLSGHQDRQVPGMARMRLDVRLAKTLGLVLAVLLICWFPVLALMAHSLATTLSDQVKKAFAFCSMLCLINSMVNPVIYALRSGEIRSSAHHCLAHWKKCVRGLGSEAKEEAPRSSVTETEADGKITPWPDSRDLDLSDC
# Cannabinoid CB1 Receptor = molecular target: T2, Cannabinoid CB1 Receptor (Homo sapiens, UniProt P21554); experiment: Binding assay for CB1 agonists or inverse agonists (radioligand competition, membranes of transfected SK-N-MC cells); details: for inhibition at 0.2 µM: read-out: Cannabinoid CB1 Receptor Binding percent inhibition
# T2 construct: expressed in transfected cells
# T2 sequence (P21554 whole entry): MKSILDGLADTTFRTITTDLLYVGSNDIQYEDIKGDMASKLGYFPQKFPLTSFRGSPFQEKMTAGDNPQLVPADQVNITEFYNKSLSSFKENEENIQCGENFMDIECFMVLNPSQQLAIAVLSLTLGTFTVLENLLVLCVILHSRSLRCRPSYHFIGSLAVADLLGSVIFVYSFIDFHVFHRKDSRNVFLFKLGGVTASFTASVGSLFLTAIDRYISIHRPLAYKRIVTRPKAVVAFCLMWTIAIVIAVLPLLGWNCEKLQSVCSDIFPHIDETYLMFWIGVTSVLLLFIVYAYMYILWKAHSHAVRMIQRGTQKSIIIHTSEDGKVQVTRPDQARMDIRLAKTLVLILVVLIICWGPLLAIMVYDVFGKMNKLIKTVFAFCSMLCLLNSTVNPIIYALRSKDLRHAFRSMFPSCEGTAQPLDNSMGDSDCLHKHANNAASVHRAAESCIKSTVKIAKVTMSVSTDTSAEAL
# [1] = test concentration of 0.2 μM, compounds without an IC50 binding value
# [2] = human CB2, SK-N-MC cell membranes, calculated by linear regression from percent inhibition at various concentrations, read-out: Cannabinoid CB2 Receptor Binding IC50
# [3] = human CB1, SK-N-MC cell membranes, calculated by linear regression from percent inhibition at various concentrations, read-out: Cannabinoid CB1 Receptor Binding IC50
# CB1 receptor (human), sequence (P21554 whole entry): as above
SMILES,EC50 (CB1 receptor (human)),IC50 (Cannabinoid CB1 Receptor),"CB1 Receptor Functional Activity (change in functional activity, CRE β-gal) (CB1 receptor (human))",IC50 (Cannabinoid CB2 Receptor),also measured
"COc1ccc(/C=C2\CN(C(C)=O)Cc3c(C(=O)N[C@H](C)c4ccccn4)nn(-c4ccc(Cl)cc4Cl)c32)cc1 [Cpd 97, (7E)-5-acetyl-1-(2,4-dichloro-phenyl)-7-(4-methoxy-benzylidene)-4,5,6,7-tetrahydro-1H-pyrazolo[4,3-c]pyridine-3-carboxylic acid [(1R)-1-pyridin-2-yl-ethyl]-amide]",10 nM,7 nM,–,–,inhibition at 0.2 µM (Cannabinoid CB2 Receptor; [1]): 33%
"CCNC(=O)N1C/C(=C\c2ccc(OC)cc2)c2c(c(C(=O)N[C@H](C)c3ccccn3)nn2-c2ccc(Cl)cc2Cl)C1 [Cpd 98, (7E)-1-(2,4-dichloro-phenyl)-7-(4-methoxy-benzylidene)-1,4,6,7-tetrahydro-pyrazolo[4,3-c]pyridine-3,5-dicarboxylic acid 5-ethylamide 3-{[(1R)-1-pyridin-2-yl-ethyl]-amide}]",4 nM,8 nM,–,–,inhibition at 0.2 µM (Cannabinoid CB2 Receptor): 17%
"COc1ccc(/C=C2\CN(S(C)(=O)=O)Cc3c(C(=O)N[C@H](C)c4ccccn4)nn(-c4ccc(Cl)cc4Cl)c32)cc1 [Cpd 99, (7E)-1-(2,4-dichloro-phenyl)-5-methanesulfonyl-7-(4-methoxy-benzylidene)-4,5,6,7-tetrahydro-1H-pyrazolo[4,3-c]pyridine-3-carboxylic acid [(1R)-1-pyridin-2-yl-ethyl]-amide]",3 nM,2 nM,–,–,inhibition at 0.2 µM (Cannabinoid CB2 Receptor): 32%
"COC(=O)N1C/C(=C\c2ccc(OC)cc2)c2c(c(C(=O)NN3CC4CCCC4C3)nn2-c2ccc(Cl)cc2Cl)C1 (stereo not drawn) [Cpd 100, (7E)-1-(2,4-dichloro-phenyl)-3-(hexahydro-cyclopenta[c]pyrrol-2-ylcarbamoyl)-7-(4-methoxy-benzylidene)-1,4,6,7-tetrahydro-pyrazolo[4,3-c]pyridine-5-carboxylic acid methyl ester]",1 nM,7 nM,–,–,inhibition at 0.2 µM (Cannabinoid CB2 Receptor): 63%
"C[C@@H](NC(=O)c1nn(Cc2ccccc2)c2c1CN(C(=O)OC(C)(C)C)CC2)C1CCCCC1 [Cpd 103, 1-benzyl-3-[(1R)-1-cyclohexyl-ethylcarbamoyl]-1,4,6,7-tetrahydro-pyrazolo[4,3-c]pyridine-5-carboxylic acid tert-butyl ester]",–,–,8%,–,IC50 (Cannabinoid CB2 Receptor; [2]): 900 nM; IC50 (Cannabinoid CB1 Receptor; [3]): 300 nM
"CC(C)(C)OC(=O)N1CCc2c(c(C(=O)N[C@H]3C4(C)CCC(C4)C3(C)C)nn2Cc2ccccc2)C1 (stereo partly drawn) [Cpd 104, 1-benzyl-3-[(2S)-1,3,3-trimethyl-bicyclo[2.2.1]hept-2-ylcarbamoyl]-1,4,6,7-tetrahydro-pyrazolo[4,3-c]pyridine-5-carboxylic acid tert-butyl ester]",–,–,−11%,20 nM,IC50 (Cannabinoid CB1 Receptor; [3]): 500 nM
"CC12CCC(C1)C(C)(C)[C@H]2NC(=O)c1nn(Cc2ccccc2)c2c1CNCC2 (stereo partly drawn) [Cpd 105, 1-benzyl-4,5,6,7-tetrahydro-1H-pyrazolo[4,3-c]pyridine-3-carboxylic acid [(2S)-1,3,3-trimethyl-bicyclo[2.2.1]hept-2-yl]-amide]",–,200 nM,−18%,500 nM,–
"CC(=O)N1CCc2c(c(C(=O)NC3C4(C)CCC(C4)C3(C)C)nn2Cc2ccccc2)C1 (stereo not drawn) [Cpd 109, 5-acetyl-1-benzyl-4,5,6,7-tetrahydro-1H-pyrazolo[4,3-c]pyridine-3-carboxylic acid (1,3,3-trimethyl-bicyclo[2.2.1]hept-2-yl)-amide]",8100 nM,1300 nM,–,80 nM,–
"CC(C)(C)OC(=O)N1CCc2c(c(C(=O)NC3C4(C)CCC(C4)C3(C)C)nn2-c2ccccc2)C1 (stereo not drawn) [Cpd 111, 1-phenyl-3-(1,3,3-trimethyl-bicyclo[2.2.1]hept-2-ylcarbamoyl)-1,4,6,7-tetrahydro-pyrazolo[4,3-c]pyridine-5-carboxylic acid tert-butyl ester]",–,–,24%,100 nM,inhibition at 0.2 µM (Cannabinoid CB1 Receptor): 27%
"CC(=O)N1CCc2c(c(C(=O)NC3C4(C)CCC(C4)C3(C)C)nn2-c2ccccc2)C1 (stereo not drawn) [Cpd 112, 5-acetyl-1-phenyl-4,5,6,7-tetrahydro-1H-pyrazolo[4,3-c]pyridine-3-carboxylic acid (1,3,3-trimethyl-bicyclo[2.2.1]hept-2-yl)-amide]",–,–,45%,100 nM,inhibition at 0.2 µM (Cannabinoid CB1 Receptor; [1]): 44%
"CCOC(=O)N1CCc2c(c(C(=O)NC3C4(C)CCC(C4)C3(C)C)nn2-c2ccccc2)C1 (stereo not drawn) [Cpd 113, 1-phenyl-3-(1,3,3-trimethyl-bicyclo[2.2.1]hept-2-ylcarbamoyl)-1,4,6,7-tetrahydro-pyrazolo[4,3-c]pyridine-5-carboxylic acid ethyl ester]",–,2300 nM,57%,80 nM,–
"CCNC(=O)N1CCc2c(c(C(=O)NC3C4(C)CCC(C4)C3(C)C)nn2-c2ccccc2)C1 (stereo not drawn) [Cpd 114, 1-phenyl-1,4,6,7-tetrahydro-pyrazolo[4,3-c]pyridine-3,5-dicarboxylic acid 5-ethylamide 3-[(1,3,3-trimethyl-bicyclo[2.2.1]hept-2-yl)-amide]]",–,–,51%,–,inhibition at 0.2 µM (Cannabinoid CB2 Receptor): 34%; inhibition at 0.2 µM (Cannabinoid CB1 Receptor): 51%
"COC(=O)N1CCc2c(c(C(=O)NC3C4(C)CCC(C4)C3(C)C)nn2-c2ccccc2)C1 (stereo not drawn) [Cpd 115, 1-phenyl-3-(1,3,3-trimethyl-bicyclo[2.2.1]hept-2-ylcarbamoyl)-1,4,6,7-tetrahydro-pyrazolo[4,3-c]pyridine-5-carboxylic acid methyl ester]",–,2700 nM,81%,90 nM,–
"CCCCn1nc(C(=O)NC2C3(C)CCC(C3)C2(C)C)c2c1CCN(C(=O)OC)C2 (stereo not drawn) [Cpd 116, 1-butyl-3-(1,3,3-trimethyl-bicyclo[2.2.1]hept-2-ylcarbamoyl)-1,4,6,7-tetrahydro-pyrazolo[4,3-c]pyridine-5-carboxylic acid methyl ester]",2900 nM,100 nM,–,–,inhibition at 0.2 µM (Cannabinoid CB2 Receptor): 53%
"CC12CCC(C1)C(C)(C)C2NC(=O)c1nn(C2CCCCC2)c2c1CNCC2 (stereo not drawn) [Cpd 118, 1-cyclohexyl-4,5,6,7-tetrahydro-1H-pyrazolo[4,3-c]pyridine-3-carboxylic acid (1,3,3-trimethyl-bicyclo[2.2.1]hept-2-yl)-amide]",–,800 nM,4%,–,IC50 (Cannabinoid CB2 Receptor; [2]): 1800 nM
"CCC(=O)N1CCc2c(c(C(=O)NC3C4(C)CCC(C4)C3(C)C)nn2C2CCCCC2)C1 (stereo not drawn) [Cpd 122, 1-cyclohexyl-5-propionyl-4,5,6,7-tetrahydro-1H-pyrazolo[4,3-c]pyridine-3-carboxylic acid (1,3,3-trimethyl-bicyclo[2.2.1]hept-2-yl)-amide]",900 nM,600 nM,–,10 nM,–
"Cc1ccc(S(=O)(=O)N2CCc3c(c(C(=O)NC4C5(C)CCC(C5)C4(C)C)nn3Cc3ccccc3)C2)cc1 (stereo not drawn) [Cpd 125, 1-benzyl-5-(toluene-4-sulfonyl)-4,5,6,7-tetrahydro-1H-pyrazolo[4,3-c]pyridine-3-carboxylic acid (1,3,3-trimethyl-bicyclo[2.2.1]hept-2-yl)-amide]",–,–,27%,30 nM,IC50 (Cannabinoid CB1 Receptor; [3]): 200 nM
"CN(C)S(=O)(=O)N1CCc2c(c(C(=O)NC3C4(C)CCC(C4)C3(C)C)nn2C2CCCCC2)C1 (stereo not drawn) [Cpd 127, 1-cyclohexyl-5-dimethylsulfamoyl-4,5,6,7-tetrahydro-1H-pyrazolo[4,3-c]pyridine-3-carboxylic acid (1,3,3-trimethyl-bicyclo[2.2.1]hept-2-yl)-amide]",–,2600 nM,28%,900 nM,–
"COC(=O)CN1CCc2c(c(C(=O)NC3C4(C)CCC(C4)C3(C)C)nn2C2CCCCC2)C1 (stereo not drawn) [Cpd 128, [1-cyclohexyl-3-(1,3,3-trimethyl-bicyclo[2.2.1]hept-2-ylcarbamoyl)-1,4,6,7-tetrahydro-pyrazolo[4,3-c]pyridin-5-yl]-acetic acid methyl ester]",–,–,−7%,–,IC50 (Cannabinoid CB2 Receptor; [2]): 400 nM; IC50 (Cannabinoid CB1 Receptor; [3]): 700 nM
"COC(=O)N1CCc2c(c(C(=O)NC3C4CC5CC(C4)CC3C5)nn2C2CCCCC2)C1 (stereo not drawn) [Cpd 131, 3-(adamantan-2-ylcarbamoyl)-1-cyclohexyl-1,4,6,7-tetrahydro-pyrazolo[4,3-c]pyridine-5-carboxylic acid methyl ester]",–,–,−49%,–,IC50 (Cannabinoid CB2 Receptor; [2]): 200 nM; IC50 (Cannabinoid CB1 Receptor; [3]): 2700 nM
"CN(C)C(=O)N1CCc2c(c(C(=O)NC3C4CC5CC(C4)CC3C5)nn2C2CCCCC2)C1 (stereo not drawn) [Cpd 132, 1-cyclohexyl-1,4,6,7-tetrahydro-pyrazolo[4,3-c]pyridine-3,5-dicarboxylic acid 3-adamantan-2-ylamide 5-dimethylamide]",–,–,−42%,–,IC50 (Cannabinoid CB2 Receptor; [2]): 200 nM; IC50 (Cannabinoid CB1 Receptor; [3]): 5500 nM
"CC(=O)N1C/C(=C\c2ccc(F)cc2)c2c(c(C(=O)N(C(C)=O)N3CCCCC3)nn2-c2ccc(Cl)cc2Cl)C1 [Cpd 134, (7E)-5-acetyl-1-(2,4-dichloro-phenyl)-7-(4-fluoro-benzylidene)-4,5,6,7-tetrahydro-1H-pyrazolo[4,3-c]pyridine-3-carboxylic acid acetyl-piperidin-1-yl-amide]",20 nM,–,–,–,inhibition at 0.2 µM (Cannabinoid CB2 Receptor): 26%; inhibition at 0.2 µM (Cannabinoid CB1 Receptor): 50%
